Reference: US7683171B2, “1H-imidazo[4,5-d]thieno[3,2-b]pyridine based tricyclic compounds and pharmaceutical compositions comprising same” (Bristol-Myers Squibb Company, priority 2005, dated 2010)

Test system: T98
Test: Ames testing
Assay type: cell-based
Details: T98 with S9 activation

Cl.Cn1cnc2c(N)nc3cc(-c4cccc(F)c4)sc3c21 [Example A5, 7-(3-Fluorophenyl)-1-methyl-1H-imidazo[4,5-d]thieno[3,2-b]pyridin-4-amine hydrochloride salt] was tested, and the Ames testing was “positive”.
